Experimental data reported in US5567692A, “9-[(substituted glycyl) amido)]-6-demethyl-6-deoxytetracyclines” (priority 1995, dated 1996).
Counter-ions that a name gives are not always drawn.

What was measured:
[1] = test system: X. maltophilia NEMC 87210; test: MIC, agar dilution; assay type: cell-based; conditions: X. maltophilia NEMC 87210; dihydrochloride
E. coli J2175 = test: MIC, agar dilution; assay type: cell-based
Proteus vulgaris = test: MIC range, recent clinical and veterinary isolates; assay type: cell-based; conditions: 18 h, [18] isolates, read-out: MIC Range
S. aureus IVES 1983 = test: MIC, agar dilution; assay type: cell-based; conditions: S. aureus IVES 1983; dihydrochloride
Morganella morganii = test: MIC range, recent clinical and veterinary isolates; assay type: cell-based; conditions: 18 h, [16] isolates
Neisseria gonorrhoeae = test: MIC range, recent clinical and veterinary isolates; assay type: cell-based; conditions: 18 h, [14] isolates
[2] = test system: Staphylococcus aureus strain Smith (tetracycline sensitive); test: Acute lethal infection in mice, S. aureus Smith; assay type: in vivo; conditions: mice, S. aureus Smith (Sens), 7 day survival, dihydrochloride, 10080 min
Listeria monocytogenes = test: MIC range, recent clinical and veterinary isolates; assay type: cell-based; conditions: 18 h, [8] isolates
[3] = test system: Staphylococcus Coagulase-negative, (methicillin-susceptible); test: MIC range, recent clinical and veterinary isolates; assay type: cell-based; conditions: 18 h, [14] isolates
S. aureus UBMS 90-3 = test: MIC, agar dilution; assay type: cell-based; conditions: Staphylococcus aureus, UBMS903, 18 h
[4] = test system: Bordetella bronchiseptica (Veterinary); test: MIC range, recent clinical and veterinary isolates; assay type: cell-based; conditions: 18 h; Bordetella bronchiseptica (Veterinary), [10] isolates; read-out: MIC Range
Enterobacter cloacae = test: MIC range, recent clinical and veterinary isolates; assay type: cell-based; conditions: 18 h, [10] isolates, read-out: MIC Range
S. aureus ATCC 29213 = test: MIC, agar dilution; assay type: cell-based; conditions: S. aureus ATCC 29213; dihydrochloride
Shigella spp. = test: MIC range, recent clinical and veterinary isolates; assay type: cell-based; conditions: 18 h, [14] isolates
[5] = test system: Staphylococcus Coagulase-negative, (methicillin-resistant); test: MIC range, recent clinical and veterinary isolates; assay type: cell-based; conditions: 18 h, [16] isolates
Clostridium perfringens = test: microbe, parasite or virus in culture; assay type: cell-based; conditions: 18 h, read-out: MIC Range
Bacteroides fragilis = test: MIC range, recent clinical and veterinary isolates; assay type: cell-based; conditions: 18 h, [11] isolates
Streptococcus pyogenes = test: MIC range, recent clinical and veterinary isolates; assay type: cell-based; conditions: 18 h, read-out: MIC Range
[6] = test system: S. aureus UBMS 88-5 Tet M; test: microbe, parasite or virus in culture; assay type: cell-based; conditions: Staphylococcus aureus, UBMS885TETM, 18 h
the ribosome = test: Reversibility of binding: bacterial growth after washing of the organism; assay type: cell-based; conditions: bacterial growth resumes when the compound is removed by washing
Description: Therefore, the ability of 9-[(N,N-dimethylglycyl)amido]-6-demethyl-6-deoxytetracycline to inhibit bacterial growth appears to be a direct consequence of its ability to inhibit protein synthesis at the ribosome level.

S. aureus SMITH (MP) = test: MIC, agar dilution; assay type: cell-based; conditions: Staphylococcus aureus, 18 h; S. aureus SMITH (MP); read-out: MIC
E. coli J3272 Tet D = test: microbe, parasite or virus in culture; assay type: cell-based; conditions: dihydrochloride
Klebsiella pneumoniae = test: MIC range, recent clinical and veterinary isolates; assay type: cell-based; conditions: 18 h, [10] isolates
E. faecalis ATCC 29212 = test: MIC, agar dilution; assay type: cell-based; conditions: E. faecalis ATCC 29212
Bacteroides spp. = test: MIC range, recent clinical and veterinary isolates; assay type: cell-based; conditions: Bacteroides, 18 h, read-out: MIC Range

CN(C)CC(=O)Nc1ccc2c(c1O)C(=O)C1=C(O)[C@]3(O)C(=O)C(C(N)=O)=C(O)[C@@H](N(C)C)C3CC1C2 (stereo partly drawn) [CC, [4S-(4alpha,12aalpha)]-4-(Dimethylamino)-9-[[(dimethylamino)acetyl]amino]-1,4,4a,5,5a,6,11,12a-octahydro-3,10,12,12a-tetrahydroxy-1,11-dioxo-2-naphthacenecarboxamide dihydrochloride]
MIC [1]: 1 µg/mL
MIC (E. coli J2175): 0.25 µg/mL
MIC (Proteus vulgaris): 0.06 to 1 µg/mL
MIC (S. aureus IVES 1983): 0.5 µg/mL
MIC (Morganella morganii): 0.5 to 1 µg/mL
MIC (Neisseria gonorrhoeae): 0.5 to 1 µg/mL
ED50 ([2]; Intraveneous): 0.46 mg/kg
ED50 ([2]; Oral): > 8 mg/kg
MIC (Listeria monocytogenes): 0.06 to 0.12 µg/mL
MIC [3]: 0.06 to 4 µg/mL
MIC (S. aureus UBMS 90-3): 0.03 µg/mL
MIC [4]: 0.06 to 0.12 µg/mL
MIC (Enterobacter cloacae): 0.5 to 1 µg/mL
MIC (S. aureus ATCC 29213): < 0.015 µg/mL
MIC (Shigella spp.): 0.12 to 0.5 µg/mL
MIC [5]: 0.06 to 16 µg/mL
MIC (Clostridium perfringens): 0.03 to 2 µg/mL
MIC (Bacteroides fragilis): 0.25 to 1 µg/mL
MIC (Streptococcus pyogenes): 0.06 to 0.12 µg/mL
MIC [6]: 0.03 µg/mL
binding to its target (the ribosome), reversibility (the ribosome): binds reversibly
MIC (S. aureus SMITH (MP)): 0.03 µg/mL
MIC (E. coli J3272 Tet D): 0.03 µg/mL
MIC (Klebsiella pneumoniae): 0.25 to 4 µg/mL
MIC (E. faecalis ATCC 29212): 0.03 µg/mL
MIC (Bacteroides spp.): 0.12 to 0.5 µg/mL
